The text below walks through data of US20160243096A1, “METHODS OF TREATING ORTH[…]” (Emergent Virology LLC, priority 2009, published 2016).

Each structure is given as a SMILES string.

Series [1] has as its system Influenza A virus H3N2 (Hong Kong). The series is described as follows: Inhibition of infectivity / virus yield reduction in MDCK cells. In kind it is cell-based. As to conditions: virus yield reduced by 1 log10, 3 days. The method, then: Table provides data for inhibition of infectivity of Influenza A virus H3N2 (Hong Kong) for NB-DNJ (UV-1), NN-DNJ (UV-2), N7-O-DNJ (UV-3), N9-DNJ (UV-4) and NAP-DNJ (UV-5).
Procedure. The compounds were screened for inhibition of generation of infectious virus was conducted on the UV compounds at concentrations up to 500 μM. The influenza virus, Influenza A H3N2, Brisbane/10/2007 strain was evaluated for virus inhibition. MDCK cells (Madin Darby canine kidney cell line) obtained from American Type Culture Collection (ATCC, Manassas, Va.). Cells were cultured in U1traMDCK, supplemented with 2 mM L-glutamine, 1 μg/ml TPCK-treated trypsin and 100 U/ml penicillin, 100 μg/ml streptomycin in cell culture treated 24-well flat bottom plates at 37° C. in a 5% CO2 incubator for 24 hr or until 80% confluent prior to assay. Cells were pretreated with compounds in a final concentration of 0.5% DMSO for 1 hr followed by addition of virus inoculums. Three wells per virus are saved for a virus-only control. Only medium is added in exchange for compound in these wells, and virus is added after the initial 1 hr incubation. Three days later virus containing supernatants were collected and effect on reduction of virus yield are tested by assaying frozen and thawed eluates from each well for virus titer by serial dilution onto monolayers of MDCK susceptible cells.

For series [2], the system named is INFV A H1N1 (strain A/Texas). The series is described as follows: Influenza in vivo study: survival of infected mice. On the set-up: species or system Balb/c mice. To be noted: ~5 LD50 intranasal, monitored 15 days. The method, then: UV-4 was administered as a free drug dissolved in acidic water. The compound was given at 100 mg/kg and 10 mg/kg by the oral route (intragastric via oral gavage—IG) twice daily. Balb/c mice received the compound for 10 days. Mice were infected with INFV A H1N1 (strain A/Texas) intranasally with ˜5 LD50 30 minutes following the first iminosugar dose.
Animals were monitored for 15 days. Animals were weighed once per day, and given health scores 2X per day. Animals displaying severe illness (as determined by 30% weight loss, extreme lethargy, ruffled coat, or paralysis) were euthanized.

Series [3] can be described thus: Iminosugar safety study in mice. In kind it is in vivo, BALB/c and C57/B1/6 mice. To be noted: for weight loss compared to vehicle only control: BALB/c and C57/B1/6 mice, oral 100 and 10 mg/kg twice a day for 7 days; for clinical signs: highest concentration (100 mg/kg twice a day, 7 days). Here is the method:
Methods and Discussion: BALB/c and C57/B1/6 mice were given oral suspensions of UV-1, UV-4, UV-5, twice a day for seven days, in 100 ul per mouse at 100 and 10 mg/kg (2 mg and 0.2 mg/mouse, respectively) 8 hours apart for 7 days, and then monitored for weight loss and general health. […] The results of these experiments are in FIG. 6.

Series [4] relates to INFV A H1N1 (strain A/Texas). Put plainly: Second influenza in vivo study: survival after H1/N1 (Texas) virus challenge. Details: species or system Balb/c mice. As to conditions: 100 mg/kg TID oral for 10 days, ~1 LD90. The method, then:
UV-4 was administered to the treated mice as a free drug dissolved in acidic water by the oral route (intragastric via oral gavage—IG) 100 mg/kg, TID for 10 days. The control mice received water orally, TID, instead of UV-4. Balb/c mice were used both for the treated mice and the control mice. Each mouse was microchipped for individual identity.
Mice were infected with INFV A H1N1 (strain A/Texas) intranasally with ˜1 LD90.
Animals were monitored for 15 days. Animals were weighed once per day, and given health scores 2× per day. Animals displaying severe illness (as determined by 30% weight loss, extreme lethargy, ruffled coat, or paralysis) were euthanized. The endpoint was considered a death of the animal or a more than 30% weight loss.
The studied mice include the following groups (10 mice per group):
1) 1 hr pre-treatment. These mice received their first UV-4 dose 1 hr before being infected with INFV A H1N1 (strain A/Texas).
2) 24 hr post-treatment. These mice received their first UV-4 dose 24 hr after being infected with INFV A H1N1 (strain A/Texas).
3) 48 hr post treatment. These mice received their first UV-4 48 hr after being infected with INFV A H1N1 (strain A/Texas).
4) 96 hr post treatment. These mice received their first UV-4 96 hr after being infected with INFV A H1N1 (strain A/Texas).

In turn, `CCCOCCCCCCN1C[C@H](O)[C@@H](O)[C@H](O)[C@H]1CO` [UV-3, N-(7-Oxadecyl)deoxynojirimycin] returned an IC90 in series [1] of 200 nM. This counts as sub-micromolar.

In the case of `COCCCCCCCCCN1C[C@H](O)[C@@H](O)[C@H](O)[C@H]1CO` [UV-4, N-(9-Methoxynonyl)deoxynojirimycin], the survival rate in series [2] (10 mg/kg BID oral gavage for 10 days) and in series [2] (100 mg/kg BID oral gavage for 10 days) was 90% in each case. Also, the 90% effect level in series [1] (IC90) was put at 200 nM. Besides, in series [3], the “weight loss compared to vehicle only control” value was “did not show any significant signs of weight loss”. The survival in series [4] (first dose 1 hr before infection) is 100%; in series [4] (first dose 24 hr after infection), 100%; in series [4] (first dose 48 hr after infection), 90%; in series [4] (first dose 96 hr after infection), 90%.

Turning to `CCCCCCCCCN1C[C@H](O)[C@@H](O)[C@H](O)[C@H]1CO` [UV-2, N-Nonyl deoxynojirimycin], the IC90 in series [1] was determined as 200 nM.

For the compound `[N-]=[N+]=Nc1ccc(NCCCCCCN2C[C@H](O)[C@@H](O)[C@H](O)[C@H]2CO)c([N+](=O)[O-])c1` [UV-5, N-(N-{4′-azido-2′-nitrophenyl}-6-aminohexyl)deoxynojirimycin], the IC90 in series [1] turned out to be 200 nM. Further, the “weight loss compared to vehicle only control” value in series [3] is “did not show any significant signs of weight loss”. In addition, the clinical signs entry in series [3] (BALB/c mice) was “signs of diarrhea, red urine, and a ruffled appearance”; in series [3] (C57/B1/6 mice), “these same symptoms but without the ruffled look”.

Regarding `CCCCN1C[C@H](O)[C@@H](O)[C@H](O)[C@H]1CO` [UV-1, N-Butyl deoxynojirimycin], the IC90 in series [1] worked out at 20000 nM. Moreover, in series [3], the “weight loss compared to vehicle only control” value is listed as “did not show any significant signs of weight loss”.
